The values that follow come from publication PMC7580722, “Design of new disubstituted imidazo[1,2-b]pyridazine derivatives as selective Haspin inhibitors. Synthesis, binding mode and anticancer biological evaluation” (Journal of Enzyme Inhibition and Medicinal Chemistry, 2020).

Some results are limits rather than exact numbers.

One assay has as its target T1, HsCdk2/Cyclin A (Homo sapiens, UniProt P24941).
T1 construct: made in house; host or cells: baculovirus/Sf9 cells
Description: CDK2 kinase assay. It is filed as biochemical. As to the method: Values are IC50 expressed in µM and calculated from dose–response curves (each point on the curves was performed in triplicate). Selectivity indexes (SI; in brackets) are calculated as follows: SI = IC50 kinase X/IC50 Haspin. ND: not determined. *IC50 values obtained using the ADP-Glo methodology (see Experimental section, Supplementary Material). […]
A, HsCdk9/Cyclin T). Native SscCK1δ /ε and SscGSK3α/β were purified from pig brain whereas HsPlk1, HsCdk1 and HsAurora B were purchased from ProQinase and SignalChem respectively. Kinase assays were performed in […]
mCi/ml; PerkinElmer) in a final volume of 30 µl as previously reported 51. After 30 min incubation at 30°C, the reaction mix was spotted onto GE healthcare P81 phosphocellulose paper using a FilterMate Harvester (PerkinElmer), and the filter was extensively washed with a 1% phosphoric acid solution. The wet filter-bound radioactivity was determined in the presence of 20 µl scintillation fluid (GE healthcare) with a TopCount® Scintillation and Luminescence Counter (PerkinElmer). IC50 values were calculated from dose-response curves […]
Kinase activities using the ADP-Glo methodology (ADP-Glo Kinase Assay; Promega) were assayed according to the assay described in Nguyen et al. 52 and Ibrahim et al. 53. […]

Another assay deals with T2, HsCDK1 (Homo sapiens, UniProt P06493).
T2 construct: purchased ProQinase
As to the kind of experiment: CDK1 kinase assay. The format is biochemical. As to the method: We therefore tested our compounds on two obvious candidates, HsCDK1 and HsPLK1 (Polo-like_kinase 1) both required for mitotic entry[50]
Values are IC50 expressed in µM and calculated from dose–response curves (each point from the curves was performed in duplicate). NR: not relevant. […]
Recombinant protein kinases were expressed and purified from E. coli (HsHaspin kinase domain aa470-798, HsCdk5/p25, RnDYRK1A kinase domain aa1-499, HsPIM1, MmCLK1) or baculovirus/Sf9 cells (HsCdk2/Cyclin A, HsCdk9/Cyclin T). Native SscCK1δ /ε and SscGSK3α/β were purified from pig brain whereas HsPlk1, HsCdk1 and HsAurora B were purchased from ProQinase and SignalChem respectively. Kinase assays were performed in specific buffers and substrates for each kinase tested in the presence of 15 µM [γ-33P] ATP (3,000 Ci/mmol, 10 mCi/ml; PerkinElmer) in a final volume of 30 µl as previously reported 51. After 30 min incubation at 30°C, the reaction mix was spotted onto GE healthcare P81 phosphocellulose paper using a FilterMate Harvester (PerkinElmer), and the filter was extensively washed with a 1% phosphoric acid solution. The wet filter-bound radioactivity was determined in the presence of 20 µl scintillation fluid (GE healthcare) with a TopCount® Scintillation and Luminescence Counter (PerkinElmer). IC50 values were calculated from dose-response curves

A further assay relates to RPE-1. Description: Cell viability, monolayer (2D), MTS assay. The format is cell-based. The following applies: Homo sapiens, 48 h. (In general: Formazan colour is commonly taken as a measure of viable cells.)
The next assay concerns HBL100. As to the kind of experiment: Cell viability, monolayer (2D), MTS assay. The format is cell-based. The following applies: Homo sapiens, HBL-100, 48 h.

T2 sequence (P06493 whole entry): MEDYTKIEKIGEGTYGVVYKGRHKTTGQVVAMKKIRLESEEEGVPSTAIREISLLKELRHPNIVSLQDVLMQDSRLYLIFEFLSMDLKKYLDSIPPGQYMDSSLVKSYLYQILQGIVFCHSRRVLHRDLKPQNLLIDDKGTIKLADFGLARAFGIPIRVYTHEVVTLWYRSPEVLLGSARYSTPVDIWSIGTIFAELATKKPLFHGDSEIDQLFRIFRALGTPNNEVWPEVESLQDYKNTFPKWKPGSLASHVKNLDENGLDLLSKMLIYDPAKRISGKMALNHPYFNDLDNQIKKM
T2 sequence (P14635 whole entry partner): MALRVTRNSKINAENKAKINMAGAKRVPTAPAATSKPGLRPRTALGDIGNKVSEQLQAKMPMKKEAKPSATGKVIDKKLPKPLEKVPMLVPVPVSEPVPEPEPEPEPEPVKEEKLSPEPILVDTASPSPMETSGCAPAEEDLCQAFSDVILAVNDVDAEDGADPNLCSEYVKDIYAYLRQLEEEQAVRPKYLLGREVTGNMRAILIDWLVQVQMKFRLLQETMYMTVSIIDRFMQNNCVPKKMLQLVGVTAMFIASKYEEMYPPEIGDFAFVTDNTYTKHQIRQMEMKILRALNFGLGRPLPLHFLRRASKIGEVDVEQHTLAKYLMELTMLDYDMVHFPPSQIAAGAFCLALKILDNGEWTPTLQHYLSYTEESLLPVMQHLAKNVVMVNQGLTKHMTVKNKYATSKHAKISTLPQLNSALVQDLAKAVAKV

For `c1cc2[nH]ncc2cc1-c1cnc2ccc(OC[C@@H]3CNCCO3)nn12` [Compound 21], the “selectivity for CDK2 vs Haspin” value on HsCdk2/Cyclin A (SI = IC50 kinase X/IC50 Haspin) is listed as 716 fold. Also, the IC50 on HsCdk2/Cyclin A (read-out: IC50 CDK2) was determined as 4.3 µM; at HsCDK1 (Table 4, read-out: IC50 HsCDK1), 2.35 µM. The “SI CDK1/Haspin” value at HsCDK1 (SI = IC50 CDK1/IC50 Haspin) was 392. Also, the EC50 with RPE-1 was 4.6 µM; with HBL100, > 10 µM.

As usually defined, the IC50 is the concentration that gives 50% inhibition. Usually EC50 stands for the midpoint of the concentration-response curve. Low readings indicate an effect from little substance, high ones a need for much substance.
